Our source for the IC50 values is patent US9586951B2 (FUJIFILM Corporation, priority 2013, dated 2017).

In the first test the target is T1, ATM (Homo sapiens, UniProt Q13315).
T1 construct: detecting phosphorylation of Chk2 in a human non-small cell lung cancer cell line NCI-H460 (ATCC company); host or cells: NCI-H460 human non-small cell lung cancer cells
T1 sequence (Q13315 whole entry): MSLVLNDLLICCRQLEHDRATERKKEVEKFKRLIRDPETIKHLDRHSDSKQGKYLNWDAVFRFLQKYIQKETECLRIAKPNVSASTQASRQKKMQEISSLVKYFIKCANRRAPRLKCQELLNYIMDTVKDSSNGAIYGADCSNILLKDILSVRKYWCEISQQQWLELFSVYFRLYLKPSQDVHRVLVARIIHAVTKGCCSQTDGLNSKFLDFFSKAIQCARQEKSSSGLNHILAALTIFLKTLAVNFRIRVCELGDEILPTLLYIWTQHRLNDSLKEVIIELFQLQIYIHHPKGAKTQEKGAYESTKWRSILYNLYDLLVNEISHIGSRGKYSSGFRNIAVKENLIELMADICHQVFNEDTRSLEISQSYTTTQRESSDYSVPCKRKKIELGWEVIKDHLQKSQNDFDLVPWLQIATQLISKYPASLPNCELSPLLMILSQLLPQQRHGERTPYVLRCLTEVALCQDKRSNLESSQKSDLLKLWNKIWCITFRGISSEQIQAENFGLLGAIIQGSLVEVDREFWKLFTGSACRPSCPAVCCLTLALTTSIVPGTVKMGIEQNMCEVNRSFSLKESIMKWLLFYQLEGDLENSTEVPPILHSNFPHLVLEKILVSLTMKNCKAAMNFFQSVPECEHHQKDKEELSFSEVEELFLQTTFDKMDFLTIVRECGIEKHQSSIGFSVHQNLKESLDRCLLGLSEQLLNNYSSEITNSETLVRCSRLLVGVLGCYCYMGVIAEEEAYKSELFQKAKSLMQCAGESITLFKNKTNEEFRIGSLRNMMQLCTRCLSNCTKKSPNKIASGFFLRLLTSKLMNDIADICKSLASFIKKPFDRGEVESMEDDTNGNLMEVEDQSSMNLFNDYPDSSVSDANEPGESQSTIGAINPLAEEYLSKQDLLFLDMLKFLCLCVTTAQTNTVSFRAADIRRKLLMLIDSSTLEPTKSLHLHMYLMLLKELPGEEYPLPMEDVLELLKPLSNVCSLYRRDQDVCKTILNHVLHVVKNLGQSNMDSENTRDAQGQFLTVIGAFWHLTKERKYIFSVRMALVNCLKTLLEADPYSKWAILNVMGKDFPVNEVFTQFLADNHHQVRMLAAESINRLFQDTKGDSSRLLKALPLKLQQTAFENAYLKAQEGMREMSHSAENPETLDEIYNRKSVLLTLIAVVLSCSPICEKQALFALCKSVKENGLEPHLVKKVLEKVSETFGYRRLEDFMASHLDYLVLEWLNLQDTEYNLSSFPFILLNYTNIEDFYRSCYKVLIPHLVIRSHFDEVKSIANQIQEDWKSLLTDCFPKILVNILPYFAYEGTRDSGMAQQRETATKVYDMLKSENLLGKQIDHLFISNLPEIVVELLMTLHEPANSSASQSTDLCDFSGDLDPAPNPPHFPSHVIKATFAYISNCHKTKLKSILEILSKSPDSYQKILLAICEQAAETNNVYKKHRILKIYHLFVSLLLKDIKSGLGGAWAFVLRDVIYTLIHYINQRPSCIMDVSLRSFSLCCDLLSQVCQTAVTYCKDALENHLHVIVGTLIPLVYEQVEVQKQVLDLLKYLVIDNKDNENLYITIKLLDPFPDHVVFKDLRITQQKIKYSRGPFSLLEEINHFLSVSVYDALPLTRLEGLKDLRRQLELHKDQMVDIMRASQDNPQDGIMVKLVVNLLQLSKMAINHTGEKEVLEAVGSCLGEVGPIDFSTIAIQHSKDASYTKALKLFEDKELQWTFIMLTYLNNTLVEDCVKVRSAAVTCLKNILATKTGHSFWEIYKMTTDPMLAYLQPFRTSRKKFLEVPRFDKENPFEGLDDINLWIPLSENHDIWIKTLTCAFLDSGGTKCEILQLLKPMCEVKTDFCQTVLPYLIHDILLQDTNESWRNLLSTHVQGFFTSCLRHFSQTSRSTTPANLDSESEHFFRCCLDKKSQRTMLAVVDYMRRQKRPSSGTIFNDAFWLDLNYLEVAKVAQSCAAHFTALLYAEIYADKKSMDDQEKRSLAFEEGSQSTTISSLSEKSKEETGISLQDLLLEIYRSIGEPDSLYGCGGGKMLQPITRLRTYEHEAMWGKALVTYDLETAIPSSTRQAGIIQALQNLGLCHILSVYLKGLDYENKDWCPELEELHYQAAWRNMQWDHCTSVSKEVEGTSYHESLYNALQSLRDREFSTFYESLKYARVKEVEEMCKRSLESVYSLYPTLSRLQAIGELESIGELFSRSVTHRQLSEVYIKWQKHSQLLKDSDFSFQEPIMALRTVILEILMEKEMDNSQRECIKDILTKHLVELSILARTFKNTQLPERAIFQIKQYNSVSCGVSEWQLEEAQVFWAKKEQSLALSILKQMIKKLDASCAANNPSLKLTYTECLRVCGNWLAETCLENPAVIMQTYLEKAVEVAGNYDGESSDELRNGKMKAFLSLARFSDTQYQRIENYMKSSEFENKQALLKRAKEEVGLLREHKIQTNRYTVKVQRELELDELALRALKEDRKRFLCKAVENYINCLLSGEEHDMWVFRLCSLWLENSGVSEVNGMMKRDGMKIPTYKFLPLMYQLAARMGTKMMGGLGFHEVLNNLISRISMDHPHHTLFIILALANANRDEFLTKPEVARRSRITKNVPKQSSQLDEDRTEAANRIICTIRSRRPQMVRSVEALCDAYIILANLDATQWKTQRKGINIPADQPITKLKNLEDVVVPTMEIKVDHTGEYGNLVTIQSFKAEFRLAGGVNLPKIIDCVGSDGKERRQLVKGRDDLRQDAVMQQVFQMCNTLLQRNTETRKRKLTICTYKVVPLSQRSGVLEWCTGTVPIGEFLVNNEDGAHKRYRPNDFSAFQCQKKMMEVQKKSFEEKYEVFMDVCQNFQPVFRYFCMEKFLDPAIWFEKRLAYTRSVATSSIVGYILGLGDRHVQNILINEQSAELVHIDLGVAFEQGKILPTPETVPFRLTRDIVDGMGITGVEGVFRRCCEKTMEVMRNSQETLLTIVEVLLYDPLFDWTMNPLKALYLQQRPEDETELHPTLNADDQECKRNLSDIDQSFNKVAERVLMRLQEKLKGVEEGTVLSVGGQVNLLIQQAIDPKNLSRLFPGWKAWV
The experiment in a line: ATM inhibition test (phosphorylation of Chk2 generated by ionizing radiation, AlphaScreen SureFire). Type of test: cell-based. To be noted: ATM inhibitory activity, phosphorylated Chk2 in NCI-H460 cells, ionizing radiation 8Gy, 1 hour after test compound treatment. In short, it runs like this: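 Phosphorylated Chk2 read by AlphaScreen SureFire in human non-small cell lung cancer NCI-H460 cells, 1 hour after 8Gy ionizing radiation at 37° C. Compound added 1 hour before irradiation. Percent inhibition normalised between irradiated and non-irradiated drug-untreated signals.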
For orientation: In Alpha technology, singlet oxygen from a donor bead excites a nearby acceptor bead.
`O=c1cc(N2CCOCC2)cc(-c2cccc3c2Sc2ccc(NCc4cccc(N5CCOCC5)n4)cc2S3)[nH]1` [Example 1-12-32, 4-Morpholino-6-(7-(((6-morpholinopyridin-2-yl)methyl)amino)thianthren-1 yl)pyridin-2(1H)-one] displayed an IC50 of 0.1 to 0.5 µM.

The same test, now with this note: phosphorylated Chk2 in NCI-H460 cells, ionizing radiation 8Gy, 1 hour after test compound treatment; read-out: ATM inhibitory activity.
As to `CN(C)c1cnc(CN(Cc2cnc(N(C)C)cn2)c2ccc3c(c2)Cc2cccc(-c4cc(N5CCOCC5)cc(=O)[nH]4)c2O3)cn1` [Example 2-2-76, 6-(7-(bis((5-(dimethylamino)pyrazin-2-yl)methyl)amino)-9H-xanthen-4-yl)-4-morpholinopyridin-2(1H)-one], the IC50 was under 0.1 µM. The same measure, in the same setting: to `Cc1ccc(C(Nc2ccc3c(c2)Sc2cccc(-c4cc(N5CCOCC5)cc(=O)[nH]4)c2S3)C2CN(CCO)CCO2)nc1` (racemic) [Example 1-57-1, 6-(7-(((4-(2-hydroxyethyl)morpholin-2-yl)(5-methylpyridin-2-yl)methyl)amino)thianthren-1-yl)-4-morpholinopyridin-2(1H)-one] belongs under 0.1 µM; to `O=c1cc(N2CCOCC2)cc(-c2cccc3c2Sc2ccc(N[C@H](COCc4ccccc4)CN4CCOCC4)cc2S3)[nH]1` [Example 1-59-2, (S)-6-(7-((1-(benzyloxy)-3-morpholinopropan-2-yl)amino)thianthren-1-yl)-4-morpholinopyridin-2(1H)-one], 0.1 to 0.5 µM. Still for that read-out and setting: in the case of “3-((6-(4-Morpholino-6-oxo- 1,6-dihydropyridin-2-yl) thianthren-2-yl)amino) indolin-2-one [Example 1-12-37]” it was 0.1 to 0.5 µM; in that of `O=c1cc(N2CCOCC2)cc(-c2cccc3c2Oc2ccc(NCc4cccc(Cl)n4)cc2C3)[nH]1` [Example 2-14-2, 6-(7-(((6-Chloropyridin-2-yl)methyl)amino)-9H-xanthen-4-yl)-4-morpholino pyridin-2(1H)-one], 0.1 to 0.5 µM. The same measure, in the same setting: in the case of `CN(C)Cc1cc(CNc2ccc3c(c2)Cc2cccc(-c4cc(N5CCOCC5)cc(=O)[nH]4)c2O3)ccn1` [Example 2-21-8, 6-(7-(((2-((Dimethylamino)methyl)pyridin-4-yl)methyl)amino)-9H-xanthen-4-yl)-4-morpholino pyridin-2(1H)-one] it was 0.5 to 2 µM; in that of `O=c1cc(N2CCOCC2)cc(-c2cccc3c2Oc2ccc(NCc4cnccc4Cl)cc2S3)[nH]1` [Example 4-4-18], 0.1 to 0.5 µM. Regarding `COc1ccc(CNc2ccc3c(c2)Cc2cccc(-c4cc(N5CCOCC5)cc(=O)[nH]4)c2O3)nc1` [Example 2-2-42, 6-(7-(((5-Methoxypyridin-2-yl)methyl)amino)-9H-xanthen-4-yl)-4-morpholino pyridin-2(1H)-one], the IC50 fell in the range of 0.1 to 0.5 µM. In the case of `CCNc1cncc(CNc2ccc3c(c2)Cc2cccc(-c4cc(N5CCOCC5)cc(=O)[nH]4)c2O3)c1` [Example 2-6-1, 6-(7-(((5-(ethylamino)pyridin-3-yl)methyl)amino)-9H-xanthen-4-yl)-4-morpholinopyridin-2(1H)-one], the IC50 lay in the range of 0.1 to 0.5 µM.

`CC(CCN1CCCCC1)Nc1ccc2c(c1)Sc1cccc(-c3cc(N4CCOCC4)cc(=O)[nH]3)c1S2` (centres unmarked) [Example 1-42-3, 4-Morpholino-6-(7-((4-(piperidin-1-yl)butan-2-yl)amino)thianthren-1-yl) pyridin-2(1H)-one]: the IC50 lay in the range of 0.1 to 0.5 µM. Still for that read-out and setting: to `COc1cnccc1CNc1ccc2c(c1)Cc1cccc(-c3cc(N4CCOCC4)cc(=O)[nH]3)c1O2` [Example 2-14-9, 6-(7-(((3-Methoxypyridin-4-yl)methyl)amino)-9H-xanthen-4-yl)-4-morpholino pyridin-2(1H)-one] belongs 0.1 to 0.5 µM; to `CN1CCC(Nc2ccc3c(c2)Sc2cccc(-c4cc(N5CCOCC5)cc(=O)[nH]4)c2S3)C1` (centres unmarked) [Example 1-31-1, 6-(7-((1-Methylpyrrolidin-3-yl)amino)thianthren-1-yl)-4-morpholinopyridin-2(1H)-one], 0.1 to 0.5 µM; to `CC1CCCCN1CC(CO)Nc1ccc2c(c1)Sc1cccc(-c3cc(N4CCOCC4)cc(=O)[nH]3)c1S2` (single isomer, unassigned) [Example 1-37-7, 6-(7-((1-Hydroxy-3-(2-methylpiperidin-1-yl)propan-2-yl)amino)thianthren-1-yl)-4-morpholino pyridin-2(1H)-one], 0.5 to 2 µM. Regarding `CC(CN1CCNCC1)Nc1ccc2c(c1)Sc1cccc(-c3cc(N4CCOCC4)cc(=O)[nH]3)c1S2` (centres unmarked) [Example 1-14, 4-Morpholino-6-(7-((1-(piperazin-1-yl)propan-2-yl)amino)thianthren-1-yl)pyridin-2(1H)-one], the IC50 was in the range of 0.5 to 2 µM.

With `CC(Nc1ccc2c(c1)Sc1cccc(-c3cc(N4CCOCC4)cc(=O)[nH]3)c1S2)c1cc(C#N)ncn1` (centres unmarked) [Example 1-12-84, 6-(1-((6-(4-Morpholino-6-oxo-1,6-dihydropyridin-2-yl)thianthren-2-yl)amino)ethyl)pyrimidine-4-carbonitrile], the IC50 was in the range of 0.1 to 0.5 µM. Turning to `COc1ccc(CCN2CCC(Nc3ccc4c(c3)Cc3ccnc(-c5cc(N6CCOCC6)cc(=O)[nH]5)c3O4)CC2)cc1` [Example 2-41-5, 6-(7-((1-(4-Methoxyphenethyl)piperidin-4-yl)amino)-5H-chromeno[2,3-c]pyridin-1-yl)-4-morpholino pyridin-2(1H)-one], the IC50 was 0.1 to 0.5 µM. Still for that read-out and setting: to `Cc1cccc(C(CO)Nc2ccc3c(c2)Cc2cccc(-c4cc(N5CCOCC5)cc(=O)[nH]4)c2O3)n1` (racemic) [Example 2-14-38, 6-(7-((2-Hydroxy-1-(6-methylpyridin-2-yl)ethyl)amino)-9H-xanthen-4-yl)-4-morpholino pyridin-2 (1H)-one] belongs 0.1 to 0.5 µM.

On to `CC(Nc1ccc2c(c1)Cc1cccc(-c3cc(N4CCOCC4)cc(=O)[nH]3)c1O2)c1cnccn1` (centres unmarked) [Example 2-14-77, 4-Morpholino-6-(7-((1-(pyrazin-2-yl)ethyl)amino)-9H-xanthen-4-yl)pyridin-2 (1H)-one], for which the IC50 lay in the range of 0.1 to 0.5 µM. Regarding `Cc1cncc(C(C)Nc2ccc3c(c2)Cc2cccc(-c4cc(N5CCOCC5)cc(=O)[nH]4)c2O3)c1` (single isomer, unassigned) [Example 2-14-88-1, 6-(7-((1-(5-methylpyridin-3-yl)ethyl)amino)-9H-xanthen-4-yl)-4-morpholinopyridin-2(1H)-one], the IC50 lay in the range of 0.1 to 0.5 µM.

As to `CN1CCC[C@H]1CNc1ccc2c(c1)Sc1cccc(-c3cc(N4CCOCC4)cc(=O)[nH]3)c1S2` [Example 1-3, (S)-6-(7-(((1-methylpyrrolidin-2-yl)methyl)amino)thianthren-1-yl)-4-morpholinopyridin-2(1H)-one], the IC50 fell in the range of 0.1 to 0.5 µM. Take `O=c1cc(N2CCOCC2)cc(-c2cccc3c2Oc2ccc(NCc4cncc(C5CCCC5)c4)cc2C3)[nH]1` [Example 2-2-66, 6-(7-(((5-Cyclopentylpyridin-3-yl)methyl)amino)-9H-xanthen-4-yl)-4-morpholino pyridin-2(1H)-one]: the IC50 was under 0.1 µM. `O=c1cc(N2CCOCC2)cc(-c2cccc3c2Sc2ccc(NC4CCCN(C5CCCC5)C4)cc2S3)[nH]1` (centres unmarked) [Example 1-24-5, 6-(7-((1-Cyclopentylpiperidin-3-yl)amino)thianthren-1-yl)-4-morpholino pyridin-2(1H)-one]: the IC50 lay within 0.1 to 0.5 µM.

With `O=c1cc(N2CCOCC2)cc(-c2cccc3c2Oc2ccc(NC4CCN(CCc5ccc(CO)cc5)CC4)cc2C3)[nH]1` [Example 2-30-17, 6-(7-((1-(4-(Hydroxymethyl)phenethyl)piperidin-4-yl)amino)-9H-xanthen-4-yl)-4-morpholino pyridin-2 (1H)-one], the IC50 was in the range of 0.1 to 0.5 µM. On the same count and under the same terms, in the case of `Nc1ccc2c(c1)Cc1ccc(F)c(-c3cc(N4CCOCC4)cc(=O)[nH]3)c1O2` [Example 2-45, 6-(7-Amino-3-fluoro-9H-xanthen-4-yl)-4-morpholinopyridin-2(1H)-one] it was 0.1 to 0.5 µM. Same read-out and setting: in the case of `Cc1ccc(C(Nc2ccc3c(c2)Sc2cccc(-c4cc(N5CCOCC5)cc(=O)[nH]4)c2S3)[C@H]2CCN(C)C2)nc1` (single isomer, unassigned) [Example 1-56-14] it was under 0.1 µM; in that of `O=c1cc(N2CCOCC2)cc(-c2cccc3c2Oc2ccc(NCc4cncc(-n5cncn5)c4)cc2C3)[nH]1` [Example 2-2-59, 6-(7-(((5-(1H-1,2,4-Triazol-1-yl)pyridin-3-yl)methyl)amino)-9H-xanthen-4-yl)-4-morpholino pyridin-2(1H)-one], 0.1 to 0.5 µM; in that of `CNc1ncccc1CNc1ccc2c(c1)Sc1cccc(-c3cc(N4CCOCC4)cc(=O)[nH]3)c1O2` [Example 4-8-21, 6-(8-(((2-(Methylamino)pyridin-3-yl)methyl)amino)phenoxathiin-4-yl)-4-morpholino pyridin-2(1H)-one], 0.1 to 0.5 µM. On the same count and under the same terms, in the case of `CC(CN1C2CCC1COC2)Nc1ccc2c(c1)Sc1cccc(-c3cc(N4CCOCC4)cc(=O)[nH]3)c1S2` (centres unmarked) [Example 1-13-5, 6-(7-((1-(3-Oxa-8-azabicyclo [3.2.1]octan-8-yl)propan-2-yl)amino)thianthren-1-yl)-4-morpholino pyridin-2(1H)-one] it was 0.1 to 0.5 µM; in that of `CC(C)(C)OC(=O)N1CCCC(Nc2ccc3c(c2)Cc2cccc(-c4cc(N5CCOCC5)cc(=O)[nH]4)c2O3)CC1` (centres unmarked) [Example 2-3-11, tert-Butyl 4-((5-(4-morpholino-6-oxo-1,6-dihydropyridin-2-yl)-9H-xanthen-2-yl)amino) azepane-1-carboxylate], 0.1 to 0.5 µM.

Consider `Cc1cnc(C(CF)Nc2ccc3c(c2)Cc2cccc(-c4cc(N5CCOCC5)cc(=O)[nH]4)c2O3)nc1` (centres unmarked) [Example 2-14-83, 6-(7-((2-Fluoro-1-(5-methylpyrimidin-2-yl)ethyl)amino)-9H-xanthen-4-yl)-4-morpholino pyridin-2(1H)-one], for which the IC50 lay in the range of 0.1 to 0.5 µM. As to `Cc1ccnc(C(CF)Nc2ccc3c(c2)Cc2cccc(-c4cc(N5CCOCC5)cc(=O)[nH]4)c2O3)n1` (centres unmarked) [Example 2-14-81, 6-(7-((2-Fluoro-1-(4-methylpyrimidin-2-yl)ethyl)amino)-9H-xanthen-4-yl)-4-morpholino pyridin-2(1H)-one], the IC50 was 0.1 to 0.5 µM.
